Test results as given in patent EP0382185A2, “Carbostyril derivatives” (OTSUKA PHARMACEUTICAL CO., LTD., priority 1989, dated 1990).

Test system: increase of diastolic pressure caused by the intravenous administration of Arg-vasopressin
Assay: Anti-vasopressor activity in vivo
Parameters: species or system male SD rat
Conditions: 0.05 h; pith rat; test compound intravenous; Arg-vasopressin (30 mU/kg) intravenously 3 minutes after the test compound; dose reducing the increase of diastolic pressure to 50 % of control

## COc1ccc(C(=O)N2CCC(N3C(=O)CCc4ccc(F)cc43)CC2)c(OC)c1 [Example 311, 7-Fluoro-1-[1-(2,4-dimethoxybenzoyl)-4-piperidinyl]-3,4-dihydrocarbostyril]
  ED50: 0.3 mg/kg
